Assay results taken from PubChem BioAssay (NCI).
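Grown in 96-well plates, cells were treated for 48 hours with each compound at five concentrations. Insufficient inhibition: endpoint recorded as highest concentration tested. GI50 marks 50% less growth. TGI is the concentration that stops growth completely.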

Key:
Experiment in all cases: inhibition of tumour cell growth, NCI panel, 48 h
M14 melanoma = test system: M14 melanoma
MDA-MB-435 = test system: MDA-MB-435
OVCAR-8 ovarian = test system: OVCAR-8 ovarian
SNB-19 CNS = test system: SNB-19 CNS
SR leukemia = test system: SR leukemia
SNB-75 CNS = test system: SNB-75 CNS
RXF 393 renal = test system: RXF 393 renal
TK-10 renal = test system: TK-10 renal
SF-539 CNS = test system: SF-539 CNS
HOP-92 NSCLC = test system: HOP-92 NSCLC
MOLT-4 leukemia = test system: MOLT-4 leukemia
UACC-257 melanoma = test system: UACC-257 melanoma
OVCAR-3 ovarian = test system: OVCAR-3 ovarian
IGROV1 ovarian = test system: IGROV1 ovarian
UACC-62 melanoma = test system: UACC-62 melanoma
HCT-116 colon = test system: HCT-116 colon
T-47D breast = test system: T-47D breast
SK-MEL-2 melanoma = test system: SK-MEL-2 melanoma
K-562 leukemia = test system: K-562 leukemia
RPMI-8226 leukemia = test system: RPMI-8226 leukemia
786-0 renal = test system: 786-0 renal
A549 NSCLC = test system: A549 NSCLC
SN12C renal = test system: SN12C renal
CCRF-CEM leukemia = test system: CCRF-CEM leukemia
SK-MEL-5 melanoma = test system: SK-MEL-5 melanoma
A498 renal = test system: A498 renal
SW-620 colon = test system: SW-620 colon
DU-145 prostate = test system: DU-145 prostate
NCI-H226 lung = test system: NCI-H226 lung
U251 CNS = test system: U251 CNS
KM12 colon = test system: KM12 colon
PC-3 prostate = test system: PC-3 prostate
HT29 colon = test system: HT29 colon
EKVX NSCLC = test system: EKVX NSCLC
NCI-H522 lung = test system: NCI-H522 lung
NCI-H23 lung = test system: NCI-H23 lung
MDA-MB-231 breast = test system: MDA-MB-231 breast
OVCAR-4 ovarian = test system: OVCAR-4 ovarian
HCC-2998 colon = test system: HCC-2998 colon
LOX IMVI melanoma = test system: LOX IMVI melanoma
COLO 205 colon = test system: COLO 205 colon
OVCAR-5 ovarian = test system: OVCAR-5 ovarian
NCI-H460 lung = test system: NCI-H460 lung
MCF7 breast = test system: MCF7 breast
CAKI-1 renal = test system: CAKI-1 renal
SK-OV-3 ovarian = test system: SK-OV-3 ovarian
SK-MEL-28 melanoma = test system: SK-MEL-28 melanoma
ACHN renal = test system: ACHN renal
NCI/ADR-RES ovarian = test system: NCI/ADR-RES ovarian
SF-295 CNS = test system: SF-295 CNS
HOP-62 NSCLC = test system: HOP-62 NSCLC
BT-549 breast = test system: BT-549 breast
UO-31 renal = test system: UO-31 renal
HS 578T breast = test system: HS 578T breast
HL-60(TB) leukemia = test system: HL-60(TB) leukemia
HCT-15 colon = test system: HCT-15 colon
SF-268 CNS = test system: SF-268 CNS

NC(N)=N/N=C/c1c(-c2ccncc2)nc2sc(Cl)cn12
GI50 (M14 melanoma): 6.54 µM
TGI (M14 melanoma): 14.7 µM
GI50 (MDA-MB-435): 6.63 µM
TGI (MDA-MB-435): 13.6 µM
GI50 (OVCAR-8 ovarian): 15.2 µM
TGI (OVCAR-8 ovarian): 36.4 µM
GI50 (SNB-19 CNS): 7.62 µM
TGI (SNB-19 CNS): > 20.6 µM
GI50 (SR leukemia): 2.24 µM
TGI (SR leukemia): 4.97 µM
GI50 (SNB-75 CNS): 4.89 µM
TGI (SNB-75 CNS): 18.9 µM
GI50 (RXF 393 renal): 15.2 µM
TGI (RXF 393 renal): 33.2 µM
GI50 (TK-10 renal): 5.26 µM
TGI (TK-10 renal): 10.9 µM
GI50 (SF-539 CNS): 7.06 µM
TGI (SF-539 CNS): 13.7 µM
GI50 (HOP-92 NSCLC): 1.43 µM
TGI (HOP-92 NSCLC): 4.63 µM
GI50 (MOLT-4 leukemia): 2.83 µM
TGI (MOLT-4 leukemia): 7.26 µM
GI50 (UACC-257 melanoma): 21.5 µM
TGI (UACC-257 melanoma): 40.6 µM
GI50 (OVCAR-3 ovarian): 5.55 µM
TGI (OVCAR-3 ovarian): 11.6 µM
GI50 (IGROV1 ovarian): 42.7 µM
TGI (IGROV1 ovarian): > 100 µM
GI50 (UACC-62 melanoma): 1.88 µM
TGI (UACC-62 melanoma): 4.91 µM
GI50 (HCT-116 colon): 2.55 µM
TGI (HCT-116 colon): 6.22 µM
GI50 (T-47D breast): 28.6 µM
TGI (T-47D breast): 56.6 µM
GI50 (SK-MEL-2 melanoma): 11.8 µM
TGI (SK-MEL-2 melanoma): > 33.7 µM
GI50 (K-562 leukemia): 2.96 µM
TGI (K-562 leukemia): 13.3 µM
GI50 (RPMI-8226 leukemia): 6.52 µM
TGI (RPMI-8226 leukemia): 21.1 µM
GI50 (786-0 renal): 6.63 µM
TGI (786-0 renal): 17 µM
GI50 (A549 NSCLC): 20.2 µM
TGI (A549 NSCLC): 40.4 µM
GI50 (SN12C renal): 2.59 µM
TGI (SN12C renal): 8.58 µM
GI50 (CCRF-CEM leukemia): 2 µM
TGI (CCRF-CEM leukemia): 4.58 µM
GI50 (SK-MEL-5 melanoma): 18.1 µM
TGI (SK-MEL-5 melanoma): 36.2 µM
GI50 (A498 renal): 17.4 µM
TGI (A498 renal): 41.2 µM
GI50 (SW-620 colon): 7.34 µM
TGI (SW-620 colon): 18 µM
GI50 (DU-145 prostate): 17.5 µM
TGI (DU-145 prostate): 33.3 µM
GI50 (NCI-H226 lung): 3.98 µM
TGI (NCI-H226 lung): 15.2 µM
GI50 (U251 CNS): 1.94 µM
TGI (U251 CNS): 3.93 µM
GI50 (KM12 colon): 2.48 µM
TGI (KM12 colon): 10.8 µM
GI50 (PC-3 prostate): 5.8 µM
TGI (PC-3 prostate): 18.8 µM
GI50 (HT29 colon): 17.1 µM
TGI (HT29 colon): > 51.3 µM
GI50 (EKVX NSCLC): 21 µM
TGI (EKVX NSCLC): 39.2 µM
GI50 (NCI-H522 lung): 10.1 µM
TGI (NCI-H522 lung): > 28.5 µM
GI50 (NCI-H23 lung): 10 µM
TGI (NCI-H23 lung): 24.1 µM
GI50 (MDA-MB-231 breast): 1.58 µM
TGI (MDA-MB-231 breast): 3.6 µM
GI50 (OVCAR-4 ovarian): 1.57 µM
TGI (OVCAR-4 ovarian): 6.16 µM
GI50 (HCC-2998 colon): 3.29 µM
TGI (HCC-2998 colon): 9.36 µM
GI50 (LOX IMVI melanoma): 3.03 µM
TGI (LOX IMVI melanoma): 9.55 µM
GI50 (COLO 205 colon): 4.21 µM
GI50 (OVCAR-5 ovarian): 7.1 µM
TGI (OVCAR-5 ovarian): 21.4 µM
GI50 (NCI-H460 lung): 27.5 µM
TGI (NCI-H460 lung): > 59.2 µM
GI50 (MCF7 breast): 5.19 µM
TGI (MCF7 breast): > 94.2 µM
GI50 (CAKI-1 renal): 18.1 µM
TGI (CAKI-1 renal): 34.7 µM
GI50 (SK-OV-3 ovarian): 22.4 µM
TGI (SK-OV-3 ovarian): 48.1 µM
GI50 (SK-MEL-28 melanoma): 14.3 µM
TGI (SK-MEL-28 melanoma): 38.8 µM
GI50 (ACHN renal): 9.28 µM
TGI (ACHN renal): 24.5 µM
GI50 (NCI/ADR-RES ovarian): 35.5 µM
TGI (NCI/ADR-RES ovarian): > 100 µM
GI50 (SF-295 CNS): 13.5 µM
TGI (SF-295 CNS): 33.7 µM
GI50 (HOP-62 NSCLC): 15.2 µM
TGI (HOP-62 NSCLC): 37.2 µM
GI50 (BT-549 breast): 10.3 µM
TGI (BT-549 breast): 27.8 µM
GI50 (UO-31 renal): 8.93 µM
TGI (UO-31 renal): > 22.7 µM
GI50 (HS 578T breast): 18.8 µM
TGI (HS 578T breast): 41.7 µM
GI50 (HL-60(TB) leukemia): 19 µM
TGI (HL-60(TB) leukemia): 45 µM
GI50 (HCT-15 colon): 17.6 µM
TGI (HCT-15 colon): 36.3 µM
GI50 (SF-268 CNS): 5.31 µM
TGI (SF-268 CNS): 15.3 µM
